Measurements as given in PMC5701060, “Inhibition of the inflammatory response to stress by targeting interaction between PKR and its cellular activator PACT” (Scientific Reports, 2017).

target: T1, PKR/PACT (GST-PKR-Nter / His-PACT) (Homo sapiens, UniProt O75569+P19525); test: HTRF protein-protein interaction assay; format: binding
T1 construct: gene EIF2AK2; PKR 1-265 (both DRBDs, no kinase domain) with N-terminal GST; full-length PACT with N-terminal His tag; E. coli
T1 sequence (P19525 1-265): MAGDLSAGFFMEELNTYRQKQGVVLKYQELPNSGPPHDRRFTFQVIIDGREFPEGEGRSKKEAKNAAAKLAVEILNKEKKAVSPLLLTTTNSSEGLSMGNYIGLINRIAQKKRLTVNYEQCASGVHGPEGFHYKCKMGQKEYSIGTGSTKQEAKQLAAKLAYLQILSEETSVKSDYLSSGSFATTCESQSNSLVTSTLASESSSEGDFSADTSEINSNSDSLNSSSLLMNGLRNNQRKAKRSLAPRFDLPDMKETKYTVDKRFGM
T1 sequence (O75569 whole entry, the tested form may be a part): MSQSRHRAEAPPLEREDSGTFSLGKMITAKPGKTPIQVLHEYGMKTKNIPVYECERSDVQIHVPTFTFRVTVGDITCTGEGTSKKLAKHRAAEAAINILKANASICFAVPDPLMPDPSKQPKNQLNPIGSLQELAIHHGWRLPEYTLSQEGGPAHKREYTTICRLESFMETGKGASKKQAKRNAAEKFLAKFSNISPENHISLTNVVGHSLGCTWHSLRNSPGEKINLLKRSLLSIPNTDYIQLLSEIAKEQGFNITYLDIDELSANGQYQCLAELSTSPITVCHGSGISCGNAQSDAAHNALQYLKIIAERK

Structure (SMILES) | IC50 [µM]
O=c1cc(-c2ccc(O)c(O)c2)oc2cc(O)cc(O)c12 [luteolin] | 50
O=c1c(O)c(-c2cc(O)c(O)c(O)c2)oc2cc(O)cc(O)c12 [myricetin] | 0.6
O=c1c(O)c(-c2ccc(O)c(O)c2)oc2cc(O)cc(O)c12 [quercetin] | 2
